Source: patent US20220218639A1
“And” between values parts separate entries of the source, which are not always exact repeats. Equal entries are not always repeated.

How the values were obtained:
[1] = target: T1, δ-plasmin (Homo sapiens, UniProt P00747, DEL181-559); assay: S-2251 inhibition assay (Dixon plot), δ-plasmin; format: biochemical; conditions: for mode of inhibition (δ-plasmin): Dixon plot with S/Vo vs I plot; for Ki: Dixon plot, S-2251 100, 350, 750 μM, enzyme 1.0 μg/mL, PBS pH 7.4, unit inferred; for Pen X-Fold inhibition (Delta Plasmin): Ki of the inhibitor relative to Ki of pentamidine
T1 construct: made in house; host or cells: E. coli (T7 expression system, pET 24b(+))

[2] = target: T2, plasmin (Homo sapiens, UniProt P00747); assay: Fluorescence titration dissociation constant (Kd) assay; format: binding; design: purchased Sigma-Aldrich; host or cells: human plasma; conditions: emission 370 nm, PBS pH 7.4, no S-2251; unit inferred; read-out: Kd by fluorescence titration (PB Fl Ki)
Description: Fluorescence Titration Dissociation Constant (Kd) Assay. Plasmin was titrated with increasing concentrations of 4-aminobenzamidine from 0-1000 μM in PBS buffer at pH 7.4. By monitoring the increase in fluorescence emission (excitation 280 nm, emission at 370 nm) from 4-aminobenzamdine associated plasmin, a direct determination of its dissociation constant (Kd) can be made. Fitting the data to a sigmoid the Kd value for 4-aminobenzamidine to sigma plasmin is the concentration of inhibitor at which 50% (or 0.5 or half maximum fluorescent emission is reached) intersects with the fit.
Fluorescent titration assay was carried out as described above for determining the Kd, which is the same as the Ki in the case of competitive inhibition, for the 4-aminobenzamidine derivative to plasmin in the absence of the S-2251 substrate.
p-Aminobenzamidine's fluorescent properties enable the implementation of a fluorescent titration assay to directly determine its binding affinity to plasmin. […] At a constant plasmin concentration, increasing amounts of p-aminobenzamidine were titrated into the sample monitoring the fluorescence emission at 370 nm (FIG. 10A).

[3] = target: T2, plasmin; assay: S-2251 inhibition assay (Dixon plot), plasmin; format: biochemical; design: purchased Sigma-Aldrich; conditions: for mode of inhibition (plasmin): Dixon plot with S/Vo vs I plot; for Ki: Dixon plot, S-2251 100, 350, 750 μM, enzyme 1.0 μg/mL, PBS pH 7.4, unit inferred; for Pen X-Fold inhibition (Plasmin): Ki of the inhibitor relative to Ki of pentamidine
Description: Inhibition Assays: Inhibition assays were carried out at a fixed plasmin concentration in the presence of a range of small molecule inhibitor concentrations from (0-1500 μM) and at least three different S-2251 substrate concentrations ranging from (0-750 μM). Ki values for both full length/native plasmin (sigma plasmin) and delta-plasmin for the small molecule inhibitors and nanoparticles were calculated based on the x-axis value at the negative intersection point of the inhibition curves at the different S-2251 substrate concentrations at a constant plasmin concentration. All experiments were carried out in triplicate and data represents means plus or minus standard deviations.

[4] = Enzyme kinetics with S-2251 chromogenic substrate (Lineweaver-Burke plot); format: biochemical; design: Kcat: unit not given here; conditions: for Kcat: S-2251 substrate, PBS pH 7.4, unit not given
Description: Enzyme Kinetic and Inhibition Assays. All enzymatic assays were conducted in phosphate buffered saline (PBS, pH 7.4) at 25° C. on a Molecular Devices SpectraMax Plus 96 well plate reader. The S-2251 assay took advantage of a shift in absorbance of the substrate upon cleaving that could be monitored at a wavelength of 405 nm to determine enzyme kinetics as well as competitive inhibition Ki values for plasmin and its derivatives. […] Initial velocities were determined by the slope of the first 60 seconds of reaction with the S-2251 substrate. All experiments were carried out in triplicate and data represents means plus or minus standard deviations.
In this Example, the predicted kinetic characteristics of plasmin and delta-plasmin were compared. KM, Vmax and Kcat were determined for both full length plasmin and delta plasmin using a Lineweaver-Burke plot in which the concentration of plasmin was held constant across a range of S-2251 substrate concentrations (0-750 μM). Initial velocities for each data point were determined by the slope of the first 60 seconds of reaction with the S-2251 substrate following absorbance at 405 nm.
The Km and Kcat for the two forms of plasmin were determined utilizing an S2251 chromogenic substrate.

[5] = system: blood clots; assay: Clot digestion assay in serum; conditions: 50% serum, 2 hours room temp, background-corrected
Description: In this Example, blood clot digestion by nanoparticles prepared using 4-carboxybenzamidine conjugated micelles and delta plasmin was analyzed in both PBS and serum.
Fresh blood was drawn and clotted in glass tubes at 37° C. for 1.5 hours. Clots were then cut, excess liquid was removed via light blotting, and weighed to produce clots of ˜600 mg size. Clots were then transferred to phosphate buffered saline (PBS at pH 7.4) or serum. […] After incubation, the blood clots were again lightly blotted and weighed. Experimental parameters are summarized in Table 3 for the clot digestion assay performed in serum.

T1 sequence (P00747 with tags, fused parts or gaps K528E/G536N/V538P/G539Q/N547D/R549E/L551R/V557I/P558L/Q559E): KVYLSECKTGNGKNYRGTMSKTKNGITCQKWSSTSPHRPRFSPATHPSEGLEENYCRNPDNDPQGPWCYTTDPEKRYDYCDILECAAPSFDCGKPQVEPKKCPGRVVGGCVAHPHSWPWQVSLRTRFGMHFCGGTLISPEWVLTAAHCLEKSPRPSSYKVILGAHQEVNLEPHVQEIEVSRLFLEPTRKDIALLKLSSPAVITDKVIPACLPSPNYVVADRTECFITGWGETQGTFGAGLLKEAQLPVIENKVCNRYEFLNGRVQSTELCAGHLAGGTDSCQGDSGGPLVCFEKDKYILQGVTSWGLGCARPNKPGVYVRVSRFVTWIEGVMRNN
T2 sequence (P00747 581-810 limits assumed): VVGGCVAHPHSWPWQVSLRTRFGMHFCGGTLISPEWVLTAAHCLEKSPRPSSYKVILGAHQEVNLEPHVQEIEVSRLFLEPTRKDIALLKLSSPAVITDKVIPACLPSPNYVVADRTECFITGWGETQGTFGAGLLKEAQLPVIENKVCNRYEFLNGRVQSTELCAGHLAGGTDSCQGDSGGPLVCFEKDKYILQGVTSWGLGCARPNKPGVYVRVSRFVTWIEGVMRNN
T2 sequence (P00747 97-580 partner limits assumed): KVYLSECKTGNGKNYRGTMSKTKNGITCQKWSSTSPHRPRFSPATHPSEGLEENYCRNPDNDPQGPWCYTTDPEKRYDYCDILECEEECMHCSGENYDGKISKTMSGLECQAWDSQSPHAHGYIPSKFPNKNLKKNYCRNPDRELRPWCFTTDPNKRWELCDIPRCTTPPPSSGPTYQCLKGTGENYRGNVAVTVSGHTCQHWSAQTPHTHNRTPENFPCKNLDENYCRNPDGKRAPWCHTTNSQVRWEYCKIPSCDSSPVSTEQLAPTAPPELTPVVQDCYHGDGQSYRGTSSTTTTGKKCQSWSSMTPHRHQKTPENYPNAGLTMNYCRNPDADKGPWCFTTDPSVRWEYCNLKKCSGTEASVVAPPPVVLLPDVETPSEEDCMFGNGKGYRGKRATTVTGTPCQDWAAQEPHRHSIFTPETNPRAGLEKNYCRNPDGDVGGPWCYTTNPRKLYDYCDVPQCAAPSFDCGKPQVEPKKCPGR

| Compound | mode of inhibition (δ-plasmin) [1] | Ki [1] | Pen X-Fold inhibition (Delta Plasmin) [1] | Kd [2] | mode of inhibition (plasmin) [3] | Ki [3] | Pen X-Fold inhibition (Plasmin) [3] | stronger inhibition than the next best inhibitor (delta plasmin) ([1]; from Ki values) | stronger inhibition than the next best inhibitor (plasmin) ([3]; from Ki values) | Vmax ([4]; S-2251 0-750 μM, PBS pH 7.4, 25° C.) | Km ([4]; S-2251 0-750 μM, PBS pH 7.4, 25° C., unit inferred) | Kcat [4] | Kcat ([4]; listed as δ-plasmin) | clot digestion [5] |
| --- | --- | --- | --- | --- | --- | --- | --- | --- | --- | --- | --- | --- | --- | --- |
| N=C(N)c1ccc(N)cc1 [4-Aminobenzamidine] | purely competitive | 60.6 ± 6.72 µM | 15.2 | 53.5 ± 4.42 µM | purely competitive | 51.9 ± 2.38 µM | 23.8 | – | – | – | – | – | – | – |
| N=C(N)c1ccc(CN)cc1 [4-Aminomethyl Benzamidine] | purely competitive | > 1000 µM and 1410 µM | 353.8 | – | purely competitive | > 1000 µM and 1070 µM | 493.0 | – | – | – | – | – | – | – |
| N=C(N)c1ccc(C(=O)O)cc1 [4-Carboxybenzamidine] | purely competitive | 302 ± 19.2 µM | 75.8 | – | purely competitive | 292 µM and 293 µM | 134.2 | – | – | – | – | – | – | – |
| N=C(N)c1ccccc1 [Benzamidine] | purely competitive | – | – | – | purely competitive | – | – | – | – | – | – | – | – | – |
| N=C(N)c1ccc(OCCCCCOc2ccc(C(=N)N)cc2)cc1 [Pentamidine] | primarily competitive | – | – | – | primarily competitive | < 4 µM and 2.2 µM | – | > 15 fold | > 15 fold | – | – | – | – | – |
| Delta Plasmin: Recombinant plasmin variant with K2-K5 deleted; kringle 1 linked directly with the catalytic domain (SEQ ID NO:2 zymogen) | – | – | – | – | – | – | – | – | – | 19.5 | 325 ± 8.43 µM | 778.2 | 778.21±1.51 | 7.175% |
